Laboratory results published in patent publication EP2633855A1, “Protease inhibitors for treating Trichomonas gallinae infections” (Veterinärmedizinische Universität Wien, priority 2012, dated 2013).
Square brackets hold non-standard residues; d marks the D form. Peptide text beside a SMILES is read from it. * marks the point of attachment. Sta = CC(C)C[C@H](N)[C@@H](O)CC(=O)O; Isovaleryl = CC(C)CC(=O)*

Key:
LMH monolayer = assay: Cytopathic effect of T. gallinae cell-free filtrate on LMH monolayer (monolayer detachment, lesion score); type: cell-based, chicken; conditions: compared with filtrate without inhibitors
Method: Permanent chicken liver (LMH) cells were grown in Medium 199 + Earle's salts + L-Glutamine (Invitrogen/Gibco, Paisley, U.K.). The medium was supplemented with 10% of FBS, 10% Tryptose Phosphate broth, penicillin (40,000 IU/ml) and streptomycin ([…]) (all Invitrogen/Gibco, Paisley, U.K). One milliliter of the media suspension containing 1x10^6 cells was inoculated into 75 cm^2 flasks with filtered caps (Sarstedt, Wiener Neudorf, Austria) containing 6 ml medium. Cells were kept in a controlled atmosphere of 5% CO2 at 37°C and around 85-90% humidity. After 72 h of incubation, a confluent monolayer of LMH cells was obtained with an average of 7x10^6 cells per flask. Cells were passaged every three to four days depending on their density.
(§1) For the analysis on LMH monolayers cell-free filtrate was prepared in the following way: 10^7 cells of a clonal culture of T. gallinae were incubated at 37°C for 24 h in the same medium as used for growth of LMH. Before incubation the protozoal cells were washed three times in PBS, (pH 7.2), trichomonad culture was centrifuged at 3300 x g for 5 min and then the supernatant from the culture was filtered through 0.22 µm cellulose acetate filters (Millipore, VWR).
Each monolayer was investigated visually by an inverted 158 light microscope to detect the effect of the cell-free filtrates on LMH monolayer. Assesment of the monolayer was performed as recently described (Amin et al., Vet.Parasitol. (2011), doi: 10.1016/j.vetpar.2011.11.037).
Firstly, preliminary experiments were done to establish the concentration of each peptidase inhibitor which was not toxic to the monolayer cell culture. In these initial experiments different concentrations of the following peptidase inhibitors were added to not-infected monolayer: 0.2 mM, 0.5 mM, 1 mM Phenylmethylsulfonyl fluoride (PMSF) as serine peptidase inhibitor, 1 µM, 2.5 µM, 5 µM pepstatin A as aspartic peptidase inhibitor, 135 µM, 540 µM, 1 mM N-α-p-Tosyl-L-Lysine chloromethyl ketone (TLCK) as cysteine and some serine peptidase inhibitor, and 70 µM 140 µM, 270 µM L-3-carboxyl-2,3-trans-epoxysuccinylleucylamido (4-guanidino) butane (E-64) as cysteine peptidase inhibitor (all purchased from Sigma-Aldrich, Steinheim, Germany).

LMH cells = assay: CellTiter 96 aqueous one solution cytotoxicity assay of cell-free filtrate on LMH cells; type: cell-based, chicken; conditions: Gallus gallus; 270 µM E-64; 72 h of incubation; clone 5895-C1/06, passage 18; filtrate without E-64: 70.9%; read-out: cytotoxicity of the cell-free filtrate on LMH cells in the presence of the inhibitor
Method: as §1
In order to investigate the cytotoxicity of cell-free filtrate on cell culture, CellTiter 96® aqueous one solution cell proliferation assay (Promega Corporation, Madison, USA) was used following manufacturer's instructions. The cell-free filtrate from 10^7 trichomonad cells was prepared as described above and 270 µM of E-64 as cysteine peptidase inhibitor was added to cell-free filtrate before its incubation with the monolayer. Cytotoxicity assay was performed as described recently by Amin et al. (2011).

[1] = test system: peptidase activity in T. gallinae cell-free filtrates; assay: One-dimensional substrate (0.2% gelatin) SDS-PAGE zymogram of cell-free filtrates; type: biochemical; conditions: clone 5895-C1/06 P49 and P130
Method: (§2) For analysis in one- (1-D) and two-dimensional (2-D) zymogram and conventional SDS PAGE the filtrate was prepared in the following way: T. gallinae clonal culture was grown in Hollander fluid (HF) medium as described recently (Amin et al., Exp. Parasitol. 124 (2010), 202-208). After 24 h of incubation, the trichomonad culture was centrifuged at 3300 x g for 5 min; the pellet was washed three times in phosphate buffer saline (PBS, pH 7.2) and was then suspended in 1 ml HF medium without serum. Motile trichomonads were counted by a Neubauer cell counting chamber (Reichert, Buffalo, NY). The concentration of the inoculum was adjusted to 10^7 motile trophozoites. 10^7 trichomonad cells were grown for 3, 6, 16, 24 h in 10 ml HF medium without serum and the cell-free filtrate was prepared. The trichomonad culture was centrifuged at 3300 x g for 5 min, and then the supernatant from the culture was filtered through 0.22 µm cellulose acetate filters (Millipore, VWR). Afterwards, 1 mM PMSF, 5 µM of Pepstatin A, 1 mM TLCK and 270 µM E-64 were added to the cell-free filtrate and incubated for 30 min on ice before concentrating the proteins. Two types of filters were used to concentrate the proteins of the cell-free filtrate. Firstly, CEN-TRIPREP® Centrifugal Filter Device 3K (Millipore, Vienna, Austria) was applied to reduce the initial volume of the filtrate (15ml) to 500 µl. After that, the samples were more concentrated using Amicon® Ultra-0.5 3K centrifugal filter device (Millipore, Vienna, Austria) to obtain a final volume of 100 µl. Both types of filters were used following manufacturer's instructions. With the samples for 2-dimensional (2-D) sodium dodecyl sulphate (SDS)-polyacrylamide gel electrophoresis (PAGE) buffer was exchanged (three times) to 10 mM Tris-Cl pH 7.2 by using the same Amicon® Ultra-0,5 3K centrifugal filter device (Millipore,Vienna, Austria). For all samples the protein concentration was measured by Bradford Reagent (Fermentas, Thermo Scientific).
(§3) For one dimension (1-D) zymographic analysis, 24 µg of concentrated p 183 proteins from cell free filtrates with and without peptidase inhibitors were separated by discontinuous SDS-PAGE (8%) copolymerized with 0.2% gelatin as substrate. In parallel, the same samples were investigated by conventional 1-D SDS-PAGE (8%). After electrophoresis, the substrate gel was incubated in 2.5% Triton X-100 (Bio-Rad Laboratories GmbH, Vienna, Austria) for 1 h at room temperature to remove SDS. Subsequently the peptidases were activated by incubating the gel in zymogram development buffer (Bio-Rad Laboratories GmbH, Vienna, Austria) for 24 h at 37 °C. […]

[2] = test system: peptidase activity in T. gallinae cell-free filtrates; assay: Conventional 1-D SDS-PAGE of cell-free filtrates with and without peptidase inhibitors; type: biochemical; conditions: clone 5895-C1/06 P49
Method: as §2, §3

T. gallinae trophozoites = assay: Viability of trichomonads with peptidase inhibitors (trypan blue staining); type: cell-based; conditions: read-out: optimum concentration that had no effect on the viability of T. gallinae trophozoites
Method: (§4) The axenic clonal cultures of T. gallinae were grown in Hollander fluid (HF) medium, as described above (Amin et al., 2010). At first, clonal cultures which underwent only a few passages were investigated. Higher passages were obtained by transferring 1 ml of the respective culture into 9 ml of fresh HF medium every 48 h. Assessing the virulence as well as the effect of peptidase inhibitors was performed with an equal passage number (P18). After 24 h of incubation, the cultures were centrifuged at 3300 x g for 5 min (Hettich Rotanta 460, Tuttlingen, Germany). The pellet was washed three times by addition of phosphate buffer saline (PBS, pH 7.2) followed by centrifugation. For counting cells were suspended in 1 ml PBS buffer and motile trichomonads were determined by a Neubauer cell counting chamber (Reichert, Buffalo, NY, USA). The concentration of the inoculum was adjusted to contain approximately 5x10^6 actively motile trophozoites suspended in 200 µl PBS buffer. The viability of trichomonad cells was evaluated using trypan blue staining.

[3] = test system: T. gallinae clone 5895-C1/06 P18; assay: Infection of spf chicken embryos with T. gallinae coincubated with peptidase inhibitors (mortality, necropsy, histology, PCR, ISH); type: in vivo, Trichomonas gallinae; conditions: for detection of trichomonad nucleic acid by ISH / histopathological examination of different organs of infected embryos: spf chicken embryos
Method: as §4
(§5) For each treatment, ten 9-day old embryonated spf chicken eggs were inoculated with 200 µl of the individual sample of protozoa suspended in sterile PBS via the allantoic cavity following a standard egg inoculation procedure (Senne, 1998). In addition, ten eggs were inoculated in the same way with sterile PBS with and without an adjusted concentration of peptidase inhibitors, to be used as a control. The inoculated eggs were sealed with melted paraffin and incubated at 37°C at a relative humidity of 55-60%. The survival of the embryos was monitored by candling the eggs daily. At the end of the incubation period (10 days) the eggs were placed at -20°C for two hours to kill the embryos and to avoid hatching. The allantoic fluid was harvested and examined microscopically for the detection of flagellates, before the embryos were necropsied. Afterwards, samples from different organs (liver, heart, lung, proventriculus, gizzard, kidney, spleen, and intestine) were preserved in 10% buffered neutral formalin and later on embedded in paraffin wax for histological examination. […] Additionally, samples from liver and gut were preserved at -20°C for polymerase chain reaction (PCR). DNA was extracted from tissue samples applying the Dneasy® Tissue Kit (Qiagen, Vienna, Austria), according to the manufacturer instructions. PCR was performed following the protocol of Grabensteiner and Hess (Vet. Parasitol. 142 (2006), 223-230). The embryos that died during the experiments were exposed to the same examination procedures. During necropsy autoclaved scissors and disposable tweezers were used for collecting the samples to avoid cross contamination.

[4] = test system: embryonated spf chicken eggs; assay: Toxicity of peptidase inhibitors in PBS to non-infected spf chicken embryos (control groups); type: in vivo
Method: as §5, with “PCR was performed following the protocol of Grabensteiner and Hess (Vet. Parasitol. 142 (2006), 223-230). The embryos that died during the experiments were exposed to the same examination procedures. During necropsy autoclaved scissors and disposable tweezers were used for collecting the samples to avoid cross contamination.” left out

Entamoeba histolytica = conditions: SCID mice; preincubation of the trophozoites with the inhibitor; cited from earlier work

## CC(C)CC(NC(=O)C1OC1C(=O)O)C(=O)NCCCCNC(=N)N [E-64, L-3-carboxyl-2,3-trans-epoxysuccinylleucylamido (4-guanidino) butane]
LMH monolayer; 270 µM E64 added to cell-free filtrate of clone 5895-C1/06
  cytopathic effects induced by trichomonads (detachment of the monolayer): best inhibition
LMH monolayer; 270 µM E64 added to cell-free filtrate of clone 5895-C1/06, listed as E64
  cytopathic effects induced by trichomonads (detachment of the monolayer): partially inhibited cytopathic effects
LMH cells
  cytotoxicity at 270 µM: 37.1%
[1]; 270 µM E-64
  proteolytic bands on zymograms of cell-free filtrates: No proteolytic bands were observed
[2]; 270 µM E-64
  band pattern in conventional SDS-PAGE: pattern of sharp bands
T. gallinae trophozoites
  MNTC: 270 µM
[3]; 270 µM E-64
  PCR results: infection in the presence versus absence of inhibitor: no considerable differences
  detection of trichomonad nucleic acid by ISH: nucleic acid of trichomonds was demonstrated by ISH in the hepatic parenchyma
  histopathological examination of different organs of infected embryos: no histological changes
[3]; 270 µM E-64 coincubated
  PCR results from the liver and gut of infected embryos: positive PCR results
[4]; 270 µM E-64 in PBS
  cytotoxic effect on the embryos, mortalities or pathomorphological changes in negative control groups: no cytotoxic effect on the embryos
Entamoeba histolytica
  liver abscesses produced by Entamoeba histolytica: greatly reduced

## O=S(=O)(F)Cc1ccccc1 [PMSF, Phenylmethylsulfonyl fluoride]
LMH monolayer; 1 mM PMSF added to cell-free filtrate of clone 5895-C1/06
  cytopathic effects induced by trichomonads (detachment of the monolayer): partially inhibited cytopathic effects
[1]; 1 mM PMSF
  proteolytic bands on zymograms of cell-free filtrates: same proteolytic regions as the sample without inhibitors
[2]; 1 mM PMSF
  band pattern in conventional SDS-PAGE: this pattern was not prominent

## CC(C)CC(=O)N[C@H](C(=O)N[C@H](C(=O)N[C@@H](CC(C)C)[C@@H](O)CC(=O)N[C@@H](C)C(=O)N[C@@H](CC(C)C)[C@@H](O)CC(=O)O)C(C)C)C(C)C [Pepstatin A, pepstatin A] (Isovaleryl-VV[Sta]A[Sta]-OH)
LMH monolayer; 5 µM Pepstatin A added to cell-free filtrate of clone 5895-C1/06
  cytopathic effects induced by trichomonads (detachment of the monolayer): no inhibitory effect
[1]; 5 µM Pepstatin A
  proteolytic bands on zymograms of cell-free filtrates: same proteolytic regions as the sample without inhibitors
[2]; 5 µM Pepstatin A
  band pattern in conventional SDS-PAGE: this pattern was not prominent

## Cc1ccc(S(=O)(=O)N[C@@H](CCCCN)C(=O)CCl)cc1 [TLCK, N-α-p-Tosyl-L-Lysine chloromethyl ketone]
LMH monolayer; 135 µM TLCK added to cell-free filtrate of clone 5895-C1/06
  cytopathic effects induced by trichomonads (detachment of the monolayer): partially inhibited cytopathic effects
[1]; 1 mM TLCK
  proteolytic bands on zymograms of cell-free filtrates: No proteolytic bands were observed
[2]; 1 mM TLCK
  band pattern in conventional SDS-PAGE: pattern of sharp bands
T. gallinae trophozoites
  MNTC: 675 µM
[3]; 675 µM TLCK coincubated
  PCR results from the liver and gut of infected embryos: positive PCR results
[3]; 675 µM TLCK, compared with E-64
  PCR results: infiltration of the flagellate to the liver: more distinct inhibitory effect on the infiltration of the flagellate to the liver than E-64
[3]; 675 µM TLCK
  detection of trichomonad nucleic acid by ISH: nucleic acid of trichomonds was demonstrated by ISH in the hepatic parenchyma
  histopathological examination of different organs of infected embryos: no histological changes
[4]; 675 µM TLCK in PBS
  cytotoxic effect on the embryos, mortalities or pathomorphological changes in negative control groups: no cytotoxic effect on the embryos
